Reference: patent US20230144855A1, “METHODS AND COMPOSITIONS FOR INDUCING FETAL HEMOGLOBIN” (Flagship Pioneering Innovations VI, LLC, priority 2021, published 2023)
Entries after “also recorded” stand apart in the source; their conditions may differ.

Columns and labels:
Type in all cases: cell-based, human
CD34+ HSPCs = assay: Flow cytometry of the CD34+/CD41Low+/CD235a+ cell state; conditions: HU 50 uM, day 3 mPB CD34+
Procedure: Therefore, in this example, CD34+ HSPCs are cultured 4 days in stem cell maintenance media (days −4 through 0) then switched to the three phases of erythroid differentiation media. Phase 1, erythroid expansion media (days 0 through 6), Phase 2 erythroid differentiation media (days 7 through 10) and Phase 3 erythroid maturation media (days 10 through 18).

[1] = system: CD34+ hematopoietic stem and progenitor cells (HSPCs); assay: Percentage HbF by HPLC / ion-exchange chromatography in in vitro derived erythrocytes; conditions: Day 14; HU 50 μM, Perturbagen 1081 0.1 μM; n=4-5
Procedure: (§1) Briefly, mobilized peripheral blood (mPB), or bone marrow (BM) derived CD34+ hematopoietic stem and progenitor cells (HSPCs) were thawed and cultured in Hematopoietic stem cell expansion media (Table 7) from Day −4 to Day 0 following by 3-stage in vitro erythroid differentiation (Table 8). Specifically, cells were cultured in erythroid expansion media (phase 1) from Day 0-6, followed by differentiation media (phase 2) between Day 7-10, and culminating with incubation in erythroid maturation media (phase 3) from Day 10-18. Perturbagens reconstituted in DMSO (or appropriate solvent) were added starting at day −2 (corresponding to a stage of CD34+ hematopoietic progenitors). […] As part of the analysis, the expansion (fold growth), viability, and erythroid maturation was measured throughout the course of differentiation. Early erythroid induction was determined by flow cytometry using a six-antibody panel (CD34, CD38, CD36, CD71, CD41, CD235a) (Table 9). Similarly, late erythroid maturation was determined by flow cytometry using a four-antibody panel (Table 10) (CD71, CD235a, CD233, CD49d) tracking increased CD233 expression, with a concomitant loss of CD49d expression, and a shift in CD71^Hi to CD71^low erythroid population (CD235a+) over 18 days (FIG. 2). […]

mPB CD34+ cells = assay: scRNA-seq of CD34+ cells treated with HbF inducers (trajectories, gene signatures); conditions: for Pseudo-trajectory associated with high levels of HBG1/HBG2 expression: Leiden clustering / gene module analysis of HbF inducers
Procedure: To understand the mechanism/cell behavior driving fetal hemoglobin induction, a number of known HbF inducers were evaluated and their signature was elucidated by scRNA-seq. In brief, mPB CD34+ cells were thawed, cultured and treated with selected HbF inducers (Table 11) as described in Example 2 and subjected to single cell gene expression profiling (GEP) at 5 time points capturing the induction of erythroid differentiation from a hematopoietic stem cell progenitor. For sequencing, 10,000 cells (1000 cells/perturbation) were loaded into a single channel of a Chromium Next GEM Chip G and partitioned into droplets with gel beads using a Chromium controller per time point. After emulsion droplets were formed and collected, reverse transcription reactions were incubated at 53° C. for 45 min.
A dimensionality-reduced representation of the count matrix was embedded using UMAP, clustered using Leiden clustering and annotated using differential expression testing (Wilcoxon test) and comparisons to established marker genes. […] Based on these two trajectories, distinct signatures were generated for each transition and a list predictions were made towards each cell state.
Based on the unique/novel cell state (CD34+/CD41^Low+/CD235a+) induced by HU treatment of human hematopoietic stem cell progenitors Applicant postulated that this cell state was reminiscent/analogous to a stress erythropoiesis cell state previously defined in mice but not well characterized in human. […] To evaluate whether HU was inducing a stress erythropoiesis cells state and whether this cell state was responsive to glucocorticoids, the effect of dexamethasone (Dex) was evaluated in the context of HU treatment.
Perturbagen 1081 induced predicted gene signature associated with fetal hemoglobin induction. […] Adult human CD34+ progenitors were treated with Perturbagen 1081 and other known HbF inducers and subjected to scRNA-seq. […] Analysis of Perturbagen 1081 induced gene signature validated the fetal erythropoiesis signature predicted using a computational predictive models (FIG. 16C).

[2] = system: CD34+ hematopoietic stem and progenitor cells (HSPCs); assay: Flow cytometry assay of percentage of HbF expressing cells (F-cells) after in vitro erythroid differentiation
Procedure: as §1

SMILES	CD34+/CD41Low+/CD235a+ cell state (CD34+ HSPCs)	HbF induced, HPLC analysis of in vitro derived erythrocytes [1] [%+4.78]	Pseudo-trajectory associated with high levels of HBG1/HBG2 expression (mPB CD34+ cells)	Expression of the glucocorticoid receptor (NR3C1) (mPB CD34+ cells; scRNA-seq of HU and HU+Dex conditions)	Number of F-cells with HU treatment ([2]; HU 50 uM on CD34+ HSPCs before erythroid differentiation)	F-cell data, glucocorticoid agonist combined with HU (absolute change, fold change) ([2]; combination with HU)
NC(=O)NO [HU, hydroxyurea]	a novel cell state defined by CD34+/CD41^Low+/CD235a+(FIG. 6A) was observed; also recorded: emergence of a cell population defined by CD34+CD41lowCD235a+ expression	17.16	HU-HbF trajectory	increases the expression of the glucocorticoid receptor (NR3C1); also recorded: induction of NR3C1	increased number of F-cells	
Cc1ccc2c(NC[C@](O)(CC(C)(C)c3cc(F)cc4c3OCC4)C(F)(F)F)cccc2n1 [Mapracorat]						synergy with HU
Nc1cccc2c1C(=O)N(C1CCC(=O)NC1=O)C2=O (stereo not shown) [Pomalidomine]			canonical-HbF trajectory			
